From US20250213555A1, “SUBSTITUTED TETRAHYDROFURAN ANALOGS AS MODULATORS OF SODIUM CHANNELS” (VERTEX PHARMACEUTICALS INCORPORATED, priority 2021, published 2025)

molecular target: human Nav 1.8 (Homo sapiens, UniProt Q9Y5Y9); assay: E-VIPR assay detecting and measuring Nav inhibition properties; type: cell-based; settings: HEK cells expressing a truncated form of human Nav 1.8; assay performed in the presence of human serum (compound numbers followed by "*"); read-out: measured IC50 value in the E-VIPR Assay
Outline: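 Nav inhibition was read by E-VIPR: cells were electrically stimulated while coumarin/oxonol FRET emissions were recorded. Cells were HEK expressing a truncated human Nav 1.8 and co-transduced with KIR2.1, and were assayed in 25% final human serum.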

human Nav 1.8, sequence (Q9Y5Y9 126-399 limits assumed): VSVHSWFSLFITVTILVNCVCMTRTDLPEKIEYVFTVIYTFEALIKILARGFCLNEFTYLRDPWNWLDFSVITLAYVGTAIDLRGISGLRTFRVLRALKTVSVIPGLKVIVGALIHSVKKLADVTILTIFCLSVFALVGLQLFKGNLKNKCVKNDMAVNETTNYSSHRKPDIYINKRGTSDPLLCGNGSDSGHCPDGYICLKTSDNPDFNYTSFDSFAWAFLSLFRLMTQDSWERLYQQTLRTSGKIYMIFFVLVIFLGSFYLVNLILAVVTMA
human Nav 1.8, sequence (Q9Y5Y9 660-890 limits assumed): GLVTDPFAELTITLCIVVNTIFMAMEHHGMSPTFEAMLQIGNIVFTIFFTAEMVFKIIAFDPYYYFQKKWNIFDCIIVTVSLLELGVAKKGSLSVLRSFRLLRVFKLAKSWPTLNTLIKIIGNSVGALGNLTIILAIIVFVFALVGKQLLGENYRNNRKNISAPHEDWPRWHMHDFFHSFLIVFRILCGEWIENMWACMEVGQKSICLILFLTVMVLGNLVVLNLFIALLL
human Nav 1.8, sequence (Q9Y5Y9 1148-1722 limits assumed): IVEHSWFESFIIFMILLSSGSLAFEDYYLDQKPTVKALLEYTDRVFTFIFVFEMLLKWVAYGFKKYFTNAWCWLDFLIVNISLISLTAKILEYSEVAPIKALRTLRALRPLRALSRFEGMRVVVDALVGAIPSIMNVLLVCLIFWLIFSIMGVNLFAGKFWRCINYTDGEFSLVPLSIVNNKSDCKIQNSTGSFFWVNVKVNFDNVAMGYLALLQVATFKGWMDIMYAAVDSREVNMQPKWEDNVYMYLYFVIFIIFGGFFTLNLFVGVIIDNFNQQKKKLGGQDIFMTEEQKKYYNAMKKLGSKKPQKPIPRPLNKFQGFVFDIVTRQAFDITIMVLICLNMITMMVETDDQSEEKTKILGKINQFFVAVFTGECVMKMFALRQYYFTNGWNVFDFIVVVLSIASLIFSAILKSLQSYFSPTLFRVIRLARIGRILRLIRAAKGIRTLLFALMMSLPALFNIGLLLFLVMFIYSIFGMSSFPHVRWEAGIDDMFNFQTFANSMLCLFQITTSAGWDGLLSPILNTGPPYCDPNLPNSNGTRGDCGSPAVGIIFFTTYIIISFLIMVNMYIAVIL

Row | IC50 | Structure (SMILES)
1 | ≥ 1 µM | COCC[C@]1(C)C[C@@H](c2ccc(F)c(F)c2OC)[C@H](C(=O)Nc2ccnc(C(N)=O)c2)O1 (single isomer, unassigned) [Compound 30]
2 | 0.1 to 1 µM | C[C@]1(C(F)(F)F)C[C@@H](c2ccc(F)c(F)c2OCCCO)[C@H](C(=O)Nc2ccnc(C(N)=O)c2)O1 (relative stereo) [Compound 35, rel-4-((2R,3S,5R)-3-(3,4-difluoro-2-(3-hydroxypropoxy)phenyl)-5-methyl-5-(trifluoromethyl)tetrahydrofuran-2-carboxamido)picolinamide]

same assay, conditions: HEK cells expressing a truncated form of human Nav 1.8; compound numbers without "*" (not marked as run in the presence of human serum); read-out: measured IC50 value in the E-VIPR Assay

Row | IC50 | Structure (SMILES)
3 | < 0.01 µM | COc1c([C@H]2[C@H](C(=O)Nc3ccnc(C(=O)N4CCN(C)[C@H]5C[C@H]54)c3)O[C@@](C)(C(F)(F)F)[C@H]2C)ccc(F)c1F (single isomer, unassigned) [Compound 294, rel-(2R*,3S*,4S*,5R*)-3-(3,4-difluoro-2-methoxyphenyl)-4,5-dimethyl-N-(2-((1R,6S)-5-methyl-2,5-diazabicyclo[4.1.0]heptane-2-carbonyl)pyridin-4-yl)-5-(trifluoromethyl)tetrahydrofuran-2-carboxamide]
4 | < 0.01 µM | C[C@H]1[C@@H](c2ccc(F)c(F)c2OCCC2(C#N)CC2)[C@H](C(=O)Nc2ccnc(C(N)=O)c2)O[C@@]1(C)C(F)(F)F [Compound 77, 4-((2R,3S,4S,5R)-3-(2-(2-(1-cyanocyclopropyl)ethoxy)-3,4-difluorophenyl)-4,5-dimethyl-5-(trifluoromethyl)tetrahydrofuran-2-carboxamido)picolinamide]
5 | < 0.01 µM | C[C@H]1[C@@H](c2ccc(F)c(F)c2OCCC2(O)CC2)[C@H](C(=O)Nc2ccnc(C(N)=O)c2)O[C@@]1(C)C(F)(F)F [Compound 156, 4-((2R,3S,4S,5R)-3-(3,4-difluoro-2-(2-(1-hydroxycyclopropyl)ethoxy)phenyl)-4,5-dimethyl-5-(trifluoromethyl)tetrahydrofuran-2-carboxamido)picolinamide]
6 | < 0.01 µM | CC=C(CO)COc1c([C@H]2[C@H](C(=O)Nc3ccnc(C(N)=O)c3)O[C@@](C)(C(F)(F)F)[C@H]2C)ccc(F)c1F (single isomer, unassigned) [Compound 164, rel-4-((2R*,3S*,4S*,5R*)-3-(3,4-difluoro-2-((2-(hydroxymethyl)but-2-en-1-yl)oxy)phenyl)-4,5-dimethyl-5-(trifluoromethyl)tetrahydrofuran-2-carboxamido)picolinamide]
7 | < 0.01 µM | C[C@H](CO)COc1c([C@H]2[C@H](C(=O)Nc3ccnc(C(N)=O)c3)O[C@@](C)(C(F)(F)F)[C@H]2C)ccc(F)c1F [Compound 82, 4-((2R,3S,4S,5R)-3-(3,4-difluoro-2-((R)-3-hydroxy-2-methylpropoxy)phenyl)-4,5-dimethyl-5-(trifluoromethyl)tetrahydrofuran-2-carboxamido)picolinamide]
8 | < 0.01 µM | C[C@H]1[C@@H](c2ccc(F)c(F)c2OCCO)[C@H](C(=O)Nc2ccnc(C(N)=O)c2)O[C@@]1(C)C(F)(F)F [Compound 5, 4-((2R,3S,4S,5R)-3-(3,4-difluoro-2-(2-hydroxyethoxy)phenyl)-4,5-dimethyl-5-(trifluoromethyl)tetrahydrofuran-2-carboxamido) picolinamide]
9 | < 0.01 µM | COc1c(Cl)cc([C@H]2[C@H](C(=O)Nc3ccnc(C(N)=O)c3)O[C@@](C)(C(F)(F)F)[C@H]2C)c(OC)c1F [Compound 154, 4-((2R,3S,4S,5R)-3-(5-chloro-3-fluoro-2,4-dimethoxyphenyl)-4,5-dimethyl-5-(trifluoromethyl)tetrahydrofuran-2-carboxamido) picolinamide]
10 | 0.01 to 0.1 µM | C[C@H]1[C@@H](c2ccc(F)c(F)c2OCCc2nccn2C)[C@H](C(=O)Nc2ccnc(C(N)=O)c2)O[C@@]1(C)C(F)(F)F [Compound 87, 4-((2R,3S,4S,5R)-3-(3,4-difluoro-2-(2-(1-methyl-1H-imidazol-2-yl)ethoxy)phenyl)-4,5-dimethyl-5-(trifluoromethyl)tetrahydrofuran-2-carboxamido)picolinamide]

Continued, molecule first:

Row | Structure (SMILES) | IC50
11 | C[C@H]1[C@@H](c2ccc(F)c(F)c2OC2COC2)[C@H](C(=O)Nc2ccnc(C(N)=O)c2)O[C@@]1(C)C(F)(F)F [Compound 58, 4-((2R,3S,4S,5R)-3-(3,4-difluoro-2-(oxetan-3-yloxy)phenyl)-4,5-dimethyl-5-(trifluoromethyl)tetrahydrofuran-2-carboxamido) picolinamide] | < 0.01 µM
12 | COc1c([C@H]2[C@H](C(=O)Nc3ccnc(C(=O)N4C[C@@H](F)[C@@H](N(C)C)C4)c3)O[C@@](C)(C(F)(F)F)[C@H]2C)ccc(F)c1F [Compound 296, (2R,3S,4S,5R)-3-(3,4-difluoro-2-methoxyphenyl)-N-(2-((3S,4R)-3-(dimethylamino)-4-fluoropyrrolidine-1-carbonyl)pyridin-4-yl)-4,5-dimethyl-5-(trifluoromethyl)tetrahydrofuran-2-carboxamide] | < 0.01 µM
13 | COc1c([C@H]2[C@H](C(=O)Nc3ccnc(C(=O)N4CCC45CN(C)C5)c3)O[C@@](C)(C(F)(F)F)[C@H]2C)ccc(F)c1F [Compound 266, (2R,3S,4S,5R)-3-(3,4-difluoro-2-methoxyphenyl)-4,5-dimethyl-N-(2-(6-methyl-1,6-diazaspiro[3.3]heptane-1-carbonyl)pyridin-4-yl)-5-(trifluoromethyl)tetrahydrofuran-2-carboxamide] | 0.01 to 0.1 µM
14 | C[C@H]1[C@@H](c2ccc(F)c(F)c2OC/C(=N\O)C(C)(C)C)[C@H](C(=O)Nc2ccnc(C(N)=O)c2)O[C@@]1(C)C(F)(F)F [Compound 189, 4-((2R,3S,4S,5R)-3-(3,4-difluoro-2-((Z)-2-(hydroxyimino)-3,3-dimethylbutoxy)phenyl)-4,5-dimethyl-5-(trifluoromethyl)tetrahydrofuran-2-carboxamido)picolinamide] | < 0.01 µM
15 | COCC1(C)CC(c2ccc(F)c(F)c2OC)C(C(=O)Nc2ccnc(C(N)=O)c2)O1 (single isomer, unassigned) [Compound 28] | 0.1 to 1 µM
16 | COc1c([C@H]2[C@H](C(=O)Nc3ccnc(C(=O)N4C[C@@H](F)[C@H](N(C)C)C4)c3)O[C@@](C)(C(F)(F)F)[C@H]2C)ccc(F)c1F [Compound 299, (2R,3S,4S,5R)-3-(3,4-difluoro-2-methoxyphenyl)-N-(2-((3R,4R)-3-(dimethylamino)-4-fluoropyrrolidine-1-carbonyl)pyridin-4-yl)-4,5-dimethyl-5-(trifluoromethyl)tetrahydrofuran-2-carboxamide] | 0.01 to 0.1 µM
17 | C[C@H]1[C@@H](c2ccc(F)c(F)c2OCC(=NO)C2CC2)[C@H](C(=O)Nc2ccnc(C(N)=O)c2)O[C@@]1(C)C(F)(F)F [Compound 182, 4-((2R,3S,4S,5R)-3-(2-(2-cyclopropyl-2-(hydroxyimino)ethoxy)-3,4-difluorophenyl)-4,5-dimethyl-5-(trifluoromethyl)tetrahydrofuran-2-carboxamido) picolinamide] | < 0.01 µM
18 | C[C@H]1[C@@H](c2ccc(F)c(F)c2OCC(C)(C)CO)[C@H](C(=O)Nc2ccnc(C(N)=O)c2)O[C@@]1(C)C(F)(F)F [Compound 71, 4-((2R,3S,4S,5R)-3-(3,4-difluoro-2-(3-hydroxy-2,2-dimethylpropoxy)phenyl)-4,5-dimethyl-5-(trifluoromethyl)tetrahydrofuran-2-carboxamido)picolinamide] | 0.1 to 1 µM
19 | COc1c([C@H]2[C@H](C(=O)Nc3cc(C(=O)N4CCNCC4)ncc3C)O[C@@](C)(C(F)(F)F)[C@H]2C)ccc(F)c1F [Compound 15, (2R,3S,4S,5R)-3-(3,4-difluoro-2-methoxy-phenyl)-4,5-dimethyl-N-[5-methyl-2-(piperazine-1-carbonyl)-4-pyridyl]-5-(trifluoromethyl)tetrahydrofuran-2-carboxamide] | < 0.01 µM
20 | C[C@H]1[C@@H](c2ccc(F)c(F)c2OCc2cncn2C)[C@H](C(=O)Nc2ccnc(C(N)=O)c2)O[C@@]1(C)C(F)(F)F [Compound 89, 4-((2R,3S,4S,5R)-3-(3,4-difluoro-2-((1-methyl-1H-imidazol-5-yl)methoxy)phenyl)-4,5-dimethyl-5-(trifluoromethyl)tetrahydrofuran-2-carboxamido)picolinamide] | < 0.01 µM
21 | C[C@H]1[C@@H](c2ccc(F)c(F)c2OCCCN2CCC2)[C@H](C(=O)Nc2ccnc(C(N)=O)c2)O[C@@]1(C)C(F)(F)F [Compound 134, 4-((2R,3S,4S,5R)-3-(2-(3-(azetidin-1-yl)propoxy)-3,4-difluorophenyl)-4,5-dimethyl-5-(trifluoromethyl)tetrahydrofuran-2-carboxamido)picolinamide] | 0.01 to 0.1 µM
22 | COc1c([C@H]2[C@H](C(=O)Nc3ccnc(C(=O)N4CCN(C)C[C@H]4C)c3)O[C@@](C)(C(F)(F)F)[C@H]2C)ccc(F)c1F [Compound 274, (2R,3S,4S,5R)-3-(3,4-difluoro-2-methoxyphenyl)-N-(2-((R)-2,4-dimethylpiperazine-1-carbonyl)pyridin-4-yl)-4,5-dimethyl-5-(trifluoromethyl)tetrahydrofuran-2-carboxamide] | < 0.01 µM
23 | COc1c([C@H]2[C@H](C(=O)Nc3ccnc(C(=O)N4CC5(CCCN5)C4)c3)O[C@@](C)(C(F)(F)F)[C@H]2C)ccc(F)c1F [Compound 230, (2R,3S,4S,5R)-N-(2-(2,5-diazaspiro[3.4]octane-2-carbonyl)pyridin-4-yl)-3-(3,4-difluoro-2-methoxyphenyl)-4,5-dimethyl-5-(trifluoromethyl)tetrahydrofuran-2-carboxamide] | < 0.01 µM
24 | C[C@H]1[C@@H](c2ccc(F)c(F)c2OCCN2CC3(COC3)C2)[C@H](C(=O)Nc2ccnc(C(N)=O)c2)O[C@@]1(C)C(F)(F)F [Compound 53, 4-((2R,3S,4S,5R)-3-(2-(2-(2-oxa-6-azaspiro[3.3]heptan-6-yl)ethoxy)-3,4-difluorophenyl)-4,5-dimethyl-5-(trifluoromethyl)tetrahydrofuran-2-carboxamido)picolinamide] | < 0.01 µM
